Where two headings read alike, the source gives them in different places.
Assays:
[1] = system: Human keratinocytes (HaCat); type: cell-based; conditions: for Malonaldehyde and 4-hydroxy alkenal: HaCat, untreated group taken as 100
Experimental: Human keratinocytes (HaCat) were plated at a density of 1.0×10^6 per 60-mm dish and then cultured in penicillin/streptomycin-containing DMEM (10% FBS) media at conditions of 37° C. and 5% CO2 for 1 week. Then, the culture media were treated with 10^−4 M of each of sesamol, the sesamol derivative of Example 1, and tocopherol as appositive control, for 24 hours. At the next day, the media were treated with 4 mM of t-BHP (t-butyl hydroperoxide) together with each of said compounds and then cultured at conditions of 37° C. and 5% CO2 for 4 hours, after which the cells were collected. The collected cells were dissolved by repeatedly performing freezing/thawing processes, and the following tests were performed in accordance with the method described in an assay kit.
In other words, in the present invention, a lipid peroxide assay kit (Calbiochem) was used as a reagent, and lipid peroxidation was measured using the principle in which long-chain unsaturated fatty acids such as malonaldehyde and 4-hydroxy alkenal form stable compounds at 586 nm by reaction with said reagent. The measurement results are shown in Table 1 below in comparison with an untreated group taken as 100.

Fibroblasts = type: cell-based; conditions: 10^-4 M; for Procollagen Synthesis (%): 24 h, serum-free media, untreated group taken as 100%
Experimental: Fibroblasts were seeded into each well of a 24-well plate at density of 10^6 cells and cultured to 90% confluence. The cultured cells were cultured in serum-free media for 24 hours and then treated with 10^−4 M of each of tocopherol, sesamol and the sesamol derivative of Example 1, which have been dissolved in serum-free media. Then, the cells were cultured in a CO2 incubator for 24 hours. The supernatants of the cell culture media were collected and observed for an increase or decrease in procollagen using a Procollagen type (A) kit. The test results are shown in Table 2 below, in which the effect of each compound on the procollagen synthesis is compared with that of an untreated group, taken as 100%.

alkaline phosphatase = test: Hydrolysis by phosphatase in phosphate buffer, HPLC of 3-aminopropane phosphoric acid formed; type: in vitro ADME; conditions: alkaline phosphatase (Sigma-Aldrich), phosphate buffer pH 7.4, HPLC, FIG. 1
Experimental: In order to examine whether the sesamol, 3-aminopropane phosphoric acid diester is hydrolyzed by phosphatase present on the skin into sesamol and 3-aminopropane phosphoric acid, the following test was performed. The sesamol, 3-aminopropane phosphoric acid diester of Example 1 and phsophatase were added in phosphate buffer (pH 7.4), followed by hydrolysis. As the phosphatase, alkaline phosphatase commercially available from Sigma-Aldrich Co. was used. The amount of 3-aminopropane phosphoric acid formed as the hydrolysis progressed was measured by HPLC (high-performance liquid chromatography), and the measurement results are shown in FIG. 1.

[2] = 10^-4 M compound 24 h, then 4 mM t-BHP together with compound 4 h

Compound | Malonaldehyde and 4-hydroxy alkenal [1, 2] | Procollagen Synthesis (%) (Fibroblasts) | antioxidant effect (in words) ([1]; 10^-4 M, t-BHP-treated HaCat, compared with sesamol and tocopherol) | effect on collagen biosynthesis (in words) (Fibroblasts; fibroblasts) | hydrolysis by phosphatase into sesamol and 3-aminopropane phosphoric acid (alkaline phosphatase) | Malonaldehyde and 4-hydroxy alkenal ([1]; 4 mM t-BHP alone, 4 h)
tocopherol | 270 | 110 | – | – | – | –
NCCCOP(=O)(O)Oc1ccc2c(c1)OCO2 [Sesamol derivative of Example 1, sesamol, 3-aminopropane phosphoric acid diester (I)] | 260 | 125 | antioxidant effect similar to those of sesamol and the positive control tocopherol | showed the effect of increasing collagen biosynthesis | can be hydrolyzed by phosphatase | –
CC(C)(C)OO [t-BHP, t-butyl hydroperoxide] | – | – | – | – | – | 320
Oc1ccc2c(c1)OCO2 [Sesamol, sesamol] | 250 | 103 | – | – | – | –

From patent US7943599B2 (priority 2005, dated 2011)
